The results in this text go back to patent US11241436B2, “Autophagy inducers for treatment of CNS conditions” (Northwestern University, priority 2017, dated 2022).

For one data set, the system named is LC3. The experiment in a line: Promega Autophagy Assay System (HiBiT-tagged LC3 reporter, autophagy flux). In kind it is cell-based. As to conditions: LC3 reporter signal; decrease = increased autophagy. The text has this:
The Promega Augophagy Assay System uses LC3 to monitor the autophagy process. […] LgBiT is a […] recombinant protein derived from NanoLuc. When HiBiT associates with LgBiT, a strong luciferase activity is reconstituted. An increase in autophagy will accelerate the degradation of LC3 reporter which decreases the assay signal. In contrast, inhibition of autophagy causes the accumulation of LC3 which will increase the reporter levels and assay signal.
As usually defined, the AC50 is the midpoint of the concentration-response curve, whichever way the signal moves. In turn, `N=c1c2c(-c3ccccc3)c(-c3ccccc3)n(Cc3ccccc3)c2ncn1[C@@H]1CCCC[C@H]1O` displayed an AC50 of 3.26 µM.
The compound `N=c1c2c(-c3ccccc3)c(-c3ccccc3)n(CCc3ccccc3)c2ncn1CCC1CCC(O)CC1` (stereo not shown) registered an AC50 of 3.66 µM.
`CO[C@H]1CC[C@H](n2cnc3c(c(-c4ccccc4)c(-c4ccccc4)n3CCc3ccccc3)c2=N)CC1` showed an AC50 of 3.66 µM.
In the case of `N=c1c2c(-c3ccccc3)c(-c3ccccc3)n(CCc3ccccc3)c2ncn1CCO`, the AC50 is 4.61 µM.
Compound `N=c1c2c(-c3ccccc3)c(-c3ccccc3)n(CCc3ccccc3)c2ncn1CCCO` had an AC50 of 4.61 µM.
As to `CN(C)CCn1cnc2c(c(-c3ccccc3)c(-c3ccccc3)n2CCc2ccccc2)c1=N`, the activity was half-maximal at 5.17 µM (AC50).
The same measure, in the same setting: as for `COc1ccc(Cn2c(-c3ccccc3)c(-c3ccccc3)c3c(=N)n(CCCCCO)cnc32)cc1`, the figure is 5.17 µM; as for `COc1ccc(Cn2c(-c3ccccc3)c(-c3ccccc3)c3c(=N)n(CCCO)cnc32)cc1`, 5.17 µM; as for `N=c1c2c(-c3ccccc3)c(-c3ccccc3)n(Cc3ccccc3)c2ncn1CCO`, 5.8 µM.
As to `N=c1c2c(-c3ccccc3)c(-c3ccccc3)n(CC3CC3)c2ncn1C1CCOCC1`, the activity was half-maximal at 7.31 µM (AC50).
For `N=c1c2c(-c3ccccc3)c(-c3ccccc3)n(CCc3ccccc3)c2ncn1[C@@H]1CCCC[C@H]1O`, the AC50 was found to be 7.31 µM.
In the case of `N=c1c2c3c(n(CCc4ccccc4)c2ncn1C1CCOCC1)CCCC3`, half-maximal activity (AC50) was put at 7.31 µM.
`N=c1c2c(-c3ccccc3)c(-c3ccccc3)n(Cc3ccccc3)c2ncn1CC1COC1` registered an AC50 of 8.2 µM.
Regarding `COc1ccc(Cn2c(-c3ccccc3)c(-c3ccccc3)c3c(=N)n(CC4CCOCC4)cnc32)cc1`, the AC50 was 9.2 µM.
`N=c1c2c(-c3ccccc3)c(-c3ccccc3)n(Cc3ccccc3)c2ncn1[C@H]1CC[C@H](CO)CC1`: the AC50 worked out at 9.2 µM.

The test system of another data set is Aβ42. The experiment in a line: Dot blot assay of Aβ42 in brain of 5XFAD mice. In kind it is in vivo, mouse. As to conditions: 5XFAD Becn1 F121A mice, 2 mg/kg i.p. once per day for 7 days. As for the experimental part:
Total protein loading was labeled by Ponceau S. N=5. **, P<0.01, t test.
Total protein loading was labeled by Ponceau S. Triplicate experiments from 4-5 mice in each group were shown. Results represent mean±s.e.m. NS, not significant; *, P<0.05; **, P<0.01; ***, P<0.001, t test.
Total protein loading was labeled by Ponceau S. Triplicate experiments from 4 mice in each group were shown.
Dot blot assay. Snap frozen hemi-brain were homogenized in 800 μl phosphate-buffered saline (PBS; Sigma-Aldrich, D8537) with 1% Triton X-100 supplemented with halt proteinase inhibitor cocktail (ThermoFisher Scientific), and halt phosphatase inhibitor cocktail (ThermoFisher Scientific). Protein concentration was quantified using BCA Assay (Pierce). For Af342 dot blots, 10 mg/ml brain homogenates were extracted in guanidine buffer (5 M guanidine-HCl [GuHCl], 50 mM Tris HCl pH 8.0) overnight at room temperature. One μl of sample was spotted in triplicate on 0.2 μm nitrocellulose membrane, and dried for 1 h at 37° C. The membrane was stained with Ponceau S, and the dot blot signal on the membrane was detected by immunostaining with Aβ42 antibody (Invitrogen, 700254, 1:1000) and HRP-conjugated secondary antibody (Santa Cruz Biotechnology, sc2004, 1:2000). Aβ42 signals were normalized to the Ponceau S staining. To separate soluble and insoluble Aβ fractions, 10 mg/ml of the total homogenated brains were centrifuged at 14000 rpm, 4° C. for 30 min. The supernatant (soluble fraction) was used directly for dot blot assays. The pellet (insoluble fraction) was extracted in guanidine buffer overnight at room temperature, and used in dot blot analyses. […] One μl of each sample was spotted on nitrocellulose membrane for dot blot analysis.
In the case of `CNC(=O)c1ccccc1Oc1nc(Nc2cc(OC)c(OC)c(OC)c2)ncc1Br` [SBI-0206965, reference compound], the “Becn1 F121A-induced reduction in brain Aβ42 levels” value is “abolished the reduction”.

A further data set deals with CB1R signaling. The experiment in a line: CB1R signaling in brain (phosphorylation of MEK and JNK) after chronic WIN. The format is in vivo, mouse. As to conditions: repeated WIN treatment 14 d. The protocol:
WT mice were treated with either daily WIN or vehicle for 14 d, and then subject to an acute dosage of WIN 1 h prior to collection of brain samples.
To investigate whether restoration of CB1R signaling underlies the behavioral regulation by autophagy activation, the level and functionality of CB1R in mouse brain after co-administration of chronic cannabinoids and autophagy inducers were analyzed. […] To determine whether the increased level of CB1R represents CB1R re-sensitization in the brain, the agonist-induced phosphorylation of signaling kinases downstream of CB1R after chronic WIN exposure were analyzed.
With `Cc1c(C(=O)c2cccc3ccccc23)c2cccc3c2n1[C@H](CN1CCOCC1)CO3` [WIN, reference compound], the “activation of CB1R (CNR1) signaling induced by agonists” value is “decreased activation”.

A further data set concerns WT mice. The data set can be described thus: Analgesic tolerance test during chronic WIN treatment. The format is in vivo, mouse. The following applies: after 14 d of repeated WIN dosage (day 14). The protocol:
Briefly, mice were injected with WIN for 14 d, and analgesic tolerance was measured without WIN treatment on day 0, and after 1-h WIN treatment on day 1 and day 14.
There were no genotype differences either in basal pain sensitivity to infrared heat-generated pain (agonist-free, day 0) (FIG. 2C), or in analgesic effects of acute WIN treatment prior to chronic WIN administration (day 1) (FIG. 2D).
For `Cc1c(C(=O)c2cccc3ccccc23)c2cccc3c2n1[C@H](CN1CCOCC1)CO3` [WIN, reference compound], the “analgesic effect of WIN” value is reported as “markedly decreased”.

Test system in a further data set: not listed separately
The experiment in a line: Body weight during chronic WIN treatment. The format is in vivo, mouse. As to conditions: mice of all genotypes during chronic WIN treatment. The text has this:
N=9-13 mice/group. Results represent mean±s.e.m.
Take `Cc1c(C(=O)c2cccc3ccccc23)c2cccc3c2n1[C@H](CN1CCOCC1)CO3` [WIN, reference compound]: the body weight result is recorded as “remained constant”.
